Results published in ChEMBL document CHEMBL1154623, “S-glycosyl primary sulfonamides--a new structural class for selective inhibition of cancer-associated carbonic anhydrases” (J Med Chem, 2009).

What was measured:
Carbonic anhydrase 9 = Carbonic anhydrase 9 (Homo sapiens, UniProt Q16790)
Description: Inhibition of human cloned CA9 catalytic domain by stopped flow CO2 hydration assay

[1] = Apparent effective permeability by PAMPA method; format: ADME; details: read-out: permeability
[2] = Chemical stability during PAMPA assessed as compound degradation; format: physicochemical; details: read-out: Activity

Compound | Ki (Carbonic anhydrase 9) [µM] | Papp [1] [×10⁻⁶ cm/s] | degraded [2] [%]
CC(=O)OC[C@H]1O[C@@H](S(N)(=O)=O)[C@H](OC(C)=O)[C@@H](OC(C)=O)[C@@H]1O[C@H]1O[C@H](COC(C)=O)[C@@H](OC(C)=O)[C@H](OC(C)=O)[C@H]1OC(C)=O | 4.08 | < 0.02 | 
NS(=O)(=O)[C@@H]1O[C@H](CO)[C@@H](O[C@H]2O[C@H](CO)[C@@H](O)[C@H](O)[C@H]2O)[C@H](O)[C@H]1O | 4.22 | < 0.5 | 
CC(=O)OC[C@H]1O[C@@H](S(N)(=O)=O)[C@H](OC(C)=O)[C@@H](OC(C)=O)[C@H]1OC(C)=O | 4.09 |  | 
CC(=O)OC[C@H]1O[C@@H](O[C@H]2[C@H](OC(C)=O)[C@@H](OC(C)=O)[C@H](S(N)(=O)=O)O[C@@H]2COC(C)=O)[C@H](OC(C)=O)[C@@H](OC(C)=O)[C@H]1OC(C)=O | 4.03 |  | 
NS(=O)(=O)[C@@H]1O[C@H](CO)[C@H](O)[C@H](O)[C@H]1O | 4.19 |  | 
CC(=O)Nc1nnc(S(N)(=O)=O)s1 [ACETAZOLAMIDE] |  | < 0.15 | 
NS(=O)(=O)[C@@H]1O[C@H](CO)[C@@H](O)[C@H](O)[C@H]1O | 4.05 | < 0.4 | 
CC(=O)OC[C@H]1O[C@@H](S(N)(=O)=O)[C@H](OC(C)=O)[C@@H](OC(C)=O)[C@@H]1OC(C)=O | 3.91 | < 0.1 | 35
COC(=O)[C@H]1O[C@@H](S(N)(=O)=O)[C@H](OC(C)=O)[C@@H](OC(C)=O)[C@@H]1OC(C)=O | 4.15 |  | 
NS(=O)(=O)[C@@H]1O[C@H](CO)[C@@H](O[C@@H]2O[C@H](CO)[C@H](O)[C@H](O)[C@H]2O)[C@H](O)[C@H]1O | 4.19 |  | 
CC1(C)O[C@@H]2[C@@H](CO[C@@]3(COS(N)(=O)=O)OC(C)(C)O[C@@H]23)O1 [TOPIRAMATE] |  | 0.54 | 
